{
  "source": "paper PMC8991960",
  "about": "“A Bivalent Activatable Fluorescent Probe for Screening and Intravital Imaging of Chemotherapy‐Induced Cancer Cell Death” (Angewandte Chemie (International Ed. in English), 2021)",
  "system": "MMTV-PyMT mammary gland tumours",
  "test": "Intravital imaging of cisplatin-induced apoptosis in breast cancer model",
  "format": "in vivo, mouse",
  "settings": "cisplatin 10 mg kg-1 i.p., Apotracker Red 650 ng i.v. 72 h later, two-photon microscopy, MMTV-PyMT;ACTB-ECFP mice",
  "from_the_text": "Optical intravital imaging is increasingly used for the preclinical evaluation of anticancer drugs in vivo. Although imaging modalities like computed tomography, positron emission tomography and magnetic resonance imaging can help to visualise whole intact organs in a non‐invasive manner,[26] they lack the spatiotemporal resolution needed to study dynamic interactions between individual tumour and stromal cells. This feature is critical to understand the mechanism of action of anticancer drugs and how they can affect interactions between cancer cells and immune cells in the tumour microenvironment.[27] Intravital imaging heavily relies on the acquisition of fluorescence signals using multiphoton microscopy, which provides cellular resolution with deep tissue penetration (≈500 μm) and minimal photodamage.[28] […] First, we analysed the chemical stability of Apotracker Red for in vivo studies by incubating the probe in mouse serum. […] When primary tumours measured around 0.5–1 cm in diameter, we administered cisplatin intraperitoneally (10 mg kg^−1). […]\nwere centrifuged (300 g, 5 min, r.t.), washed once with PBS before addition of 0.05% Trypsin, 0.02% ethylenediaminetetraacetic acid (EDTA) in Hank’s balanced salt solution (HBSS) and incubation at 37°C for 5 min. […] Histograms and mean fluorescence intensities of apoptotic cells were measured on a 5L LSR flow cytometer under the following […]",
  "data": [
    {"smiles": "N.N.[Cl][Pt][Cl]", "note": "[cisplatin]", "values": [
      {"measurement": "Apotracker Red fluorescence in tumours of treated mice (intravital imaging)", "result": "strong red fluorescent signals indicating cancer cell death induced by the drug"}
    ]}
  ]
}
